molecular target: T1, human capsaicin receptor (Homo sapiens, UniProt Q8NER1); experiment: Calcium mobilization assay, determination of antagonist activity (Example 6); assay type: cell-based; details: Table II; IC50 determined as described in Example 6 (antagonist activity, calcium mobilization)
T1 construct: pBK-CMV expression construct encoding the full length human capsaicin receptor; expressed in transfected cells
Protocol: A cDNA encoding full length human capsaicin receptor (SEQ ID NO: 1, 2 or 3 of U.S. Pat. No. 6,482,611) was subcloned in the plasmid pBK-CMV (Stratagene, La Jolla, Calif.) for recombinant expression in mammalian cells.
Human embryonic kidney (HEK293) cells were transfected with the pBK-CMV expression construct encoding the full length human capsaicin receptor using standard methods. The transfected cells were selected for two weeks in media containing G418 (400 μg/ml) to obtain a pool of stably transfected cells. Independent clones were isolated from this pool by limiting dilution to obtain clonal stable cell lines for use in subsequent experiments.
This Example illustrates representative calcium mobilization assays for use in evaluating test compounds for agonist and antagonist activity.
Cells transfected with expression plasmids (as described in Example 4) and thereby expressing human capsaicin receptor are seeded and grown to 70-90% confluency in FALCON black-walled, clear-bottomed 96-well plates (#3904, BECTON-DICKINSON, Franklin Lakes, N.J.). The culture medium is emptied from the 96 well plates and FLUO-3 AM calcium sensitive dye (Molecular Probes, Eugene, Oreg.) is added to each well (dye solution: 1 mg FLUO-3 AM, 440 μL DMSO and 440 pi 20% pluronic acid in DMSO, diluted 1:250 in Krebs-Ringer HEPES (KRH) buffer (25 mM HEPES, 5 mM KCl, 0.96 mM NaH2PO4, 1 mM MgSO4, 2 mM CaCl2, 5 mM glucose, 1 mM probenecid, pH 7.4), 50 μl diluted solution per well). Plates are covered with aluminum foil and incubated at 37° C. for 1-2 hours in an environment containing 5% CO2. After the incubation, the dye is emptied from the plates, and the cells are washed once with KRH buffer, and resuspended in KRH buffer.
To measure the ability of a test compound to agonize or antagonize a calcium mobilization response in cells expressing capsaicin receptors to capsaicin or other vanilloid agonist, the EC50 of the agonist capsaicin is first determined. An additional 20 μl of KRH buffer and 1 μl DMSO is added to each well of cells, prepared as described above. 100 μl capsaicin in KRH buffer is automatically transferred by the FLIPR instrument to each well. Capsaicin-induced calcium mobilization is monitored using either FLUOROSKAN ASCENT (Labsystems; Franklin, Mass.) or FLIPR (fluorometric imaging plate reader system; Molecular Devices, Sunnyvale, Calif.) instruments. Data obtained between 30 and 60 seconds after agonist application are used to generate an 8-point concentration response curve, with final capsaicin concentrations of 1 nM to 3 μM. KALEIDAGRAPH software (Synergy Software, Reading, Pa.) is used to fit the data to the equation: y=a*(1/(1+(b/x)^c)) to determine the 50% excitatory concentration (EC50) for the response. In this equation, y is the maximum fluorescence signal, x is the concentration of the agonist or antagonist (in this case, capsaicin), a is the Emax, b corresponds to the EC50 value and c is the Hill coefficient. Determination of Agonist Activity
Test compounds are dissolved in DMSO, diluted in 20 μl KRH buffer so that the final concentration of test compounds in the assay well is between 1 μM and 5 μM, and added to cells prepared as described above. The 96 well plates containing prepared cells and test compounds are incubated in the dark, at room temperature for 0.5 to 6 hours. It is important that the incubation not continue beyond 6 hours. Just prior to determining the fluorescence response, 100 pi capsaicin in KRH buffer at twice the EC50 concentration determined as described above is automatically added by the FLIPR instrument to each well of the 96 well plate for a final sample volume of 200 μl and a final capsaicin concentration equal to the EC50. The final concentration of test compounds in the assay wells is between 1 μM and 5 μM. […]

T1 sequence (Q8NER1 whole entry): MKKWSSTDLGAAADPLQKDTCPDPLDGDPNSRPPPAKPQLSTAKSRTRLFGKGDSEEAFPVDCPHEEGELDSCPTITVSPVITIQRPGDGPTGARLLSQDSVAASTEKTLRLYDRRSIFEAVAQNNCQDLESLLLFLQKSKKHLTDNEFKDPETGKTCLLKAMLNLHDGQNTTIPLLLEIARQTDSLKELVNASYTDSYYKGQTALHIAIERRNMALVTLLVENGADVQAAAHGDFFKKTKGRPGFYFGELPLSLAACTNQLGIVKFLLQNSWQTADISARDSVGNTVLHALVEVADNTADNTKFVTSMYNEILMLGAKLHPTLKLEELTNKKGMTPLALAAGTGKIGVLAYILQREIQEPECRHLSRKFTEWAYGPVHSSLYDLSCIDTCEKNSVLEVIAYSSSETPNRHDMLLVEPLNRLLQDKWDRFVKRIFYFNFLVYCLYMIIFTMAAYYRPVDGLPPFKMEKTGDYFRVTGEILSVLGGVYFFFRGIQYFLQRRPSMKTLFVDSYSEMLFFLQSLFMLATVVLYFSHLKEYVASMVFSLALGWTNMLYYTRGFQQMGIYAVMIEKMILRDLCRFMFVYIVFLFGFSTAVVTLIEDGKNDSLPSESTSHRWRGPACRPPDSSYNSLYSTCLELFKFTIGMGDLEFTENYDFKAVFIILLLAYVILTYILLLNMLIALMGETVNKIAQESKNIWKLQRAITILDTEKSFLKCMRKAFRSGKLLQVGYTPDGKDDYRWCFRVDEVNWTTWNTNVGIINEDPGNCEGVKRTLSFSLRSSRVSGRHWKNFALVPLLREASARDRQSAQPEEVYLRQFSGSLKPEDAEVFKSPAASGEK

IC50	SMILES
≤ 1 µM	CC1CCCN1c1nc(-c2ccc(F)cc2)cc(N2CCN(c3nc(C#N)ccc3C#N)C[C@H]2C)n1 (stereo in doubt) [Example 1014, 6-{4-[6-(4-fluorophenyl)-2-(2-methylpyrrolidin-1-yl)pyrimidin-4-yl]-3-methylpiperazin-1-yl}pyridine-2,5-dicarbonitrile]

same assay, conditions: Table II; determined as described in Example 6 (antagonist activity); "*" = 1 micromolar or less

SMILES	IC50
CC(=O)c1cccc(-c2cc(N3CCN(c4ncccc4Cl)C[C@H]3C)nc(N3CCCC3C)n2)c1 (stereo in doubt) [Example 888, 1-{3-[6-[4-(3-chloropyridin-2-yl)-2-methylpiperazin-1-yl]-2-(2-methylpyrrolidin-1-yl)pyrimidin-4-yl]phenyl}ethanone]	≤ 1 µM
Cc1cc(-c2cc(Cl)nc(N3CCN(c4ncccc4Cl)C[C@@H]3C)n2)ccc1F (stereo in doubt) [Example 899, 4-chloro-2-[4-(3-chloropyridin-2-yl)-2-methylpiperazin-1-yl]-6-(4-fluoro-3-methylphenyl)pyrimidine]	≤ 1 µM
Cc1cc(-c2cc(N3CCN(c4ncccc4Cl)C[C@@H]3C)nc(N3CCCC3C)n2)ccc1F (stereo in doubt) [Example 903, 4-[4-(3-chloropyridin-2-yl)-2-methylpiperazin-1-yl]-6-(4-fluoro-3-methylphenyl)-2-(2-methylpyrrolidin-1-yl)pyrimidine]	≤ 1 µM
C[C@@H]1CN(c2nccnc2Cl)CCN1c1cc(-c2ccc(F)c(Cl)c2)nc(Cl)n1 (stereo in doubt) [Example 907, 2-chloro-4-(3-chloro-4-fluorophenyl)-6-[4-(3-chloropyrazin-2-yl)-2-methylpiperazin-1-yl]pyrimidine]	≤ 1 µM
Cc1cc(-c2cc(N3CCN(c4nccnc4Cl)C[C@H]3C)nc(N3CCCC3C)n2)ccc1F (stereo in doubt) [Example 915, 4-[4-(3-chloropyrazin-2-yl)-2-methylpiperazin-1-yl]-6-(4-fluoro-3-methylphenyl)-2-(2-methylpyrrolidin-1-yl)pyrimidine]	≤ 1 µM
C[C@H]1CN(c2nccnc2Cl)CCN1c1cc(-c2ccc(F)c(F)c2)nc(N2CCOCC2)n1 (stereo in doubt) [Example 939, 4-[4-[4-(3-chloropyrazin-2-yl)-2-methylpiperazin-1-yl]-6-(3,4-difluorophenyl)pyrimidin-2-yl]morpholine]	≤ 1 µM
CC1CN(c2nccnc2Cl)CCN1c1nc(-c2ccc(F)c(Cl)c2)cc(N2CCC[C@H]2C)n1 (stereo in doubt) [Example 943, 4-(3-chloro-4-fluorophenyl)-2-[(2R)-4-(3-chloropyrazin-2-yl)-2-methylpiperazin-1-yl]-6-[(2R)-2-methylpyrrolidin-1-yl]pyrimidine]	≤ 1 µM
CC1CCCN1c1nc(-c2ccc(F)c(Cl)c2)cc(N2CCN(c3ncc(Cl)cc3Cl)C[C@H]2C)n1 (stereo in doubt) [Example 954, 4-(3-chloro-4-fluorophenyl)-6-[4-(3,5-dichloropyridin-2-yl)-2-methylpiperazin-1-yl]-2-(2-methylpyrrolidin-1-yl)pyrimidine]	≤ 1 µM

Further lines, results first:

IC50	SMILES
≤ 1 µM	C[C@@H]1CCCN1c1nc(-c2ccc(Cl)c(F)c2)cc(N2CCN(c3nccnc3Cl)C[C@@H]2C)n1 (relative stereo) [Example 969, rel-4-(4-chloro-3-fluorophenyl)-6-[(2R)-4-(3-chloropyrazin-2-yl)-2-methylpiperazin-1-yl]-2-[(2S)-2-methylpyrrolidin-1-yl]pyrimidine]
≤ 1 µM	C[C@@H]1CN(c2nccnc2Cl)CCN1c1cc(-c2ccc(F)c(F)c2)nc(Cl)n1 (stereo in doubt) [Example 823, 2-chloro-4-[4-(3-chloropyrazin-2-yl)-2-methylpiperazin-1-yl]-6-(3,4-difluorophenyl)pyrimidine]
≤ 1 µM	C[C@@H]1CN(c2ncccc2Cl)CCN1c1cc(-c2ccc(F)c(Cl)c2)nc(Cl)n1 (stereo in doubt) [Example 827, 2-chloro-4-(3-chloro-4-fluorophenyl)-6-[4-(3-chloropyridin-2-yl)-2-methylpiperazin-1-yl]pyrimidine]
≤ 1 µM	CSc1nc(-c2ccc(F)cc2)cc(N2CCN(c3ncccc3Cl)C[C@H]2C)n1 (stereo in doubt) [Example 839, 4-[4-(3-chloropyridin-2-yl)-2-methylpiperazin-1-yl]-6-(4-fluorophenyl)-2-(methylthio)pyrimidine]
≤ 1 µM	C[C@@H]1CN(c2ncccc2Cl)CCN1c1cc(-c2ccc(F)cc2)nc(S(C)(=O)=O)n1 (stereo in doubt) [Example 840, 4-[4-(3-chloropyridin-2-yl)-2-methylpiperazin-1-yl]-6-(4-fluorophenyl)-2-(methylsulfonyl)pyrimidine]
≤ 1 µM	C[C@@H]1CN(c2ncccc2Cl)CCN1c1cc(-c2ccc(F)cc2)nc(N2CCCC2)n1 (stereo in doubt) [Example 841, 4-[4-(3-chloropyridin-2-yl)-2-methylpiperazin-1-yl]-6-(4-fluorophenyl)-2-pyrrolidin-1-ylpyrimidine]
≤ 1 µM	CC1CCCN1c1nc(-c2ccc(F)cc2)cc(N2CCN(c3ncccc3Cl)C[C@H]2C)n1 (stereo in doubt) [Example 842, 4-[4-(3-chloropyridin-2-yl)-2-methylpiperazin-1-yl]-6-(4-fluorophenyl)-2-(2-methylpyrrolidin-1-yl)pyrimidine]
≤ 1 µM	CCOC(=O)c1ccc(-c2cc(N3CCN(c4ncccc4Cl)C[C@H]3C)nc(N3CCCC3C)n2)cc1 (stereo in doubt) [Example 867, ethyl 4-[6-[4-(3-chloropyridin-2-yl)-2-methylpiperazin-1-yl]-2-(2-methylpyrrolidin-1-yl)pyrimidin-4-yl]benzoate]
≤ 1 µM	CC1CCCN1c1nc(-c2cccc(C#N)c2)cc(N2CCN(c3ncccc3Cl)C[C@H]2C)n1 (stereo in doubt) [Example 869, 3-[6-[4-(3-chloropyridin-2-yl)-2-methylpiperazin-1-yl]-2-(2-methylpyrrolidin-1-yl)pyrimidin-4-yl]benzonitrile]
≤ 1 µM	C[C@@H]1CN(c2ncccc2Cl)CCN1c1cc(-c2cccc(C#N)c2)nc(N2CCOCC2)n1 (stereo in doubt) [Example 870, 3-{6-[4-(3-chloropyridin-2-yl)-2-methylpiperazin-1-yl]-2-morpholin-4-ylpyrimidin-4-yl}benzonitrile]

same assay, conditions: Table II; determined as described in Example 6; class symbol

IC50	SMILES
≤ 1 µM	Cc1cccc(-c2nc(N3CCOCC3)nc(N3CCN(c4ccccn4)CC3)n2)c1 [Example 234]
≤ 1 µM	CC(C)c1cccc(-c2nc(N3CCOCC3)nc(N3CCN(c4ccccn4)CC3)n2)c1 [Example 235, 2-(3-isopropylphenyl)-4-morpholin-4-yl-6-(4-pyridin-2-ylpiperazin-1-yl)-1,3,5-triazine]
≤ 1 µM	Cc1cc(C)cc(-c2nc(N3CCOCC3)nc(N3CCN(c4ccccn4)CC3)n2)c1 [Example 236, 2-(3,5-dimethylphenyl)-4-morpholin-4-yl-6-(4-pyridin-2-ylpiperazin-1-yl)-1,3,5-triazine]
≤ 1 µM	CCc1cccc(-c2nc(N3CCOCC3)nc(N3CCN(c4ccccn4)CC3)n2)c1 [Example 237, 2-(3-ethylphenyl)-4-morpholin-4-yl-6-(4-pyridin-2-ylpiperazin-1-yl)-1,3,5-triazine]
≤ 1 µM	Cc1cccc(-c2nc(N3CCOCC3)nc(N3CCN(c4ncccc4C(F)(F)F)CC3)n2)c1 [Example 238, 2-(3-methylphenyl)-4-morpholin-4-yl-6-{4-[3-(trifluoromethyl)pyridin-2-yl]piperazin-1-yl}-1,3,5-triazine]

From patent US7566712B2, “Biaryl piperazinyl-pyridine analogues” (Neurogen Corporation, priority 2003, dated 2009)
